Assay results as given in patent US10092568B2, “CBP/Catenin antagonists for enhancing asymmetric division of somatic stem cells” (University of Southern California, priority 2010, dated 2018).

What was measured:
Min mouse = Min mouse polyp model; type: in vivo
Excerpt: Cancer. The importance of Wnt signaling in colorectal cancer is undisputed. Applicant's investigation on the therapeutic utility of ICG-001 therefore quite naturally began with colon cancer.

[1] = tested on: fibroblasts from IPF patients; assay: S100A4/FSP-1 expression in fibroblasts from IPF patients in vitro; type: cell-based
Excerpt: Fibrosis. Idiopathic pulmonary fibrosis (IPF)/usual interstitial pneumonia (UIP), the most common of the idiopathic interstitial pneumonias, is a devastating, progressive disorder characterized by excessive fibroblast proliferation and extracellular matrix remodeling leading to lung destruction. There is currently no effective therapy for this uniformly fatal disease. An emerging paradigm proposes a central role for alveolar epithelial cell injury and dysregulated repair in the pathogenesis of IPF. Injury to the epithelium is thought to initiate a cascade of fibroblast activation and matrix deposition, which in predisposed hosts fails to resolve as it would in the course of normal wound repair. Epithelial cells undergo excessive apoptosis, whereas fibroblasts are less amenable to apoptosis and manifest increased survival. The well-characterized model of bleomycin-induced lung injury has been extensively used to investigate potential pathways involved in the pathogenesis of pulmonary fibrosis and to explore therapeutic approaches.

[2] = tested on: PC-12 cells with mutant PS-1 (L286V); assay: Neuronal differentiation of PC-12 cells with FAD mutant PS-1 (L286V); type: cell-based
Excerpt: However, the effects of PS-1 mutations on the stability of beta-catenin, TCF/beta-catenin signaling, and thereby its potential role in AD remain controversial. Applicant has shown that introduction of a FAD mutant PS-1 (L286V) into PC-12 cells causes increased TCF/beta-catenin signaling, leading to the inhibition of neurite outgrowth. […] In the CNS, EpB2 expression is associated with axonal guidance (16). […] In initial in vivo studies, applicant treated penta-transgenic mice that over express mutant APP (695) (Swedish (K670N, M671L), Florida (I716V) and London (V717I)) and PS-1 (M146L and L286V) mutations with ICG-001 for 2 months (months 2-4). These mice normally develop massive cerebral deposition of Aβ starting at 6 weeks of age.

[3] = tested on: bleomycin-induced pulmonary fibrosis; assay: Bleomycin-induced lung injury / pulmonary fibrosis; type: in vivo, mouse
[4] = tested on: imatinib resistant (IR) CML cells / leukemia stem cells; assay: Imatinib resistant CML, in vitro and NOD/SCID/IL2rγ−/− mouse model of engrafted human CML; type: in vivo
Excerpt: Chronic myelogenous leukemia (CML). Despite the stunning clinical success achieved to date in chronic phase CML patients treated with the BCR-ABL antagonist Gleevec/Imatinib (IM), responses in advanced phase patients are often short-lived, and patients invariably undergo disease progression. Furthermore, resistance to IM develops in 2% to 4% of patients annually and IM dose escalation is generally not sufficient to control the disease. Several mechanisms that contribute to tyrosine kinase inhibitor (TKI) resistance have been proposed including the insensitivity of quiescent CML stem cells to TKIs due to low expression of BCR-ABL and the emergence of drug resistant leukemic clones associated with increased nuclear catenin levels, a hallmark of increased Wnt/catenin transcription. […] Epigenetic silencing of negative regulators of the Wnt signaling cascade is also frequently associated with leukemias, including CML. […] The mice treated with one course (28 days from day 13-41 after leukemia engraftment) of CBP/catenin antagonist plus bcr-abl antagonist are essentially cured of leukemia and live as long (approximately 2 years) as their littermates that were never engrafted with leukemia.

`O=C1[C@H](Cc2ccc(O)cc2)N2C(=O)CCN(C(=O)NCc3ccccc3)[C@H]2CN1Cc1cccc2ccccc12` [ICG-001] was tested, and the polyps (Min mouse) was “reducing polyps”, the “expression of S100A4/FSP-1” value [1] was “significantly decreased” and the EpB2 expression [2] was “again increased”. For the same molecule, the “neuronal differentiation and neurite outgrowth” value [2] was “rescues the defects”, the “expression of GAP43” value ([2]; NGF-induced differentiation) was “dramatically increased” and the “lacZ expression in airway and alveolar epithelium” value ([3]; BAT-gal transgenic mice, intranasal bleomycin) was “significantly reduced”. The “expression of genes associated with fibrosis, ECM deposition and EMT” value ([3]; after bleomycin) was “essentially to the level of control”, the “expression of S100A4/FSP-1” value ([3]; in vivo in the mouse) was “significantly decreased” and the established fibrosis ([3]; mouse model) was “could reverse established fibrosis”. The “severity of pulmonary fibrosis” value ([3]; pretreatment) was “significantly reduced the severity”, the “drug resistant leukemia stem cells” value ([4]; NOD/SCID/IL2rγ−/− mice engrafted with human CML) was “can be eliminated” and the “differentiation of the IR cells” value ([4]; in vitro and in vivo) was “induces the differentiation”. The “effects on normal endogenous hematopoiesis” value ([4]; mouse, in vivo) was “without deleterious effects”.
